In patent publication US8716284B2, “Adamantyl diamide derivatives and uses of same” (H. Lundbeck A/S, priority 2008, dated 2014):

The molecules below were run against T1, rat metabotropic glutamate receptor 5 (mGluR5) (Rattus norvegicus, UniProt P31424) (assay: Calcium mobilization assay (FLIPR) for negative or positive allosteric activity, HEK 293 cells). Details: HEK293, negative allosteric modulation, inhibition of EC80 glutamate response; read-out: FLIPR maximum inhibition.
T1 construct: expressed in transfected cells; host or cells: HEK 293
T1 sequence (P31424 21-1171 isoform P31424-2 limits assumed): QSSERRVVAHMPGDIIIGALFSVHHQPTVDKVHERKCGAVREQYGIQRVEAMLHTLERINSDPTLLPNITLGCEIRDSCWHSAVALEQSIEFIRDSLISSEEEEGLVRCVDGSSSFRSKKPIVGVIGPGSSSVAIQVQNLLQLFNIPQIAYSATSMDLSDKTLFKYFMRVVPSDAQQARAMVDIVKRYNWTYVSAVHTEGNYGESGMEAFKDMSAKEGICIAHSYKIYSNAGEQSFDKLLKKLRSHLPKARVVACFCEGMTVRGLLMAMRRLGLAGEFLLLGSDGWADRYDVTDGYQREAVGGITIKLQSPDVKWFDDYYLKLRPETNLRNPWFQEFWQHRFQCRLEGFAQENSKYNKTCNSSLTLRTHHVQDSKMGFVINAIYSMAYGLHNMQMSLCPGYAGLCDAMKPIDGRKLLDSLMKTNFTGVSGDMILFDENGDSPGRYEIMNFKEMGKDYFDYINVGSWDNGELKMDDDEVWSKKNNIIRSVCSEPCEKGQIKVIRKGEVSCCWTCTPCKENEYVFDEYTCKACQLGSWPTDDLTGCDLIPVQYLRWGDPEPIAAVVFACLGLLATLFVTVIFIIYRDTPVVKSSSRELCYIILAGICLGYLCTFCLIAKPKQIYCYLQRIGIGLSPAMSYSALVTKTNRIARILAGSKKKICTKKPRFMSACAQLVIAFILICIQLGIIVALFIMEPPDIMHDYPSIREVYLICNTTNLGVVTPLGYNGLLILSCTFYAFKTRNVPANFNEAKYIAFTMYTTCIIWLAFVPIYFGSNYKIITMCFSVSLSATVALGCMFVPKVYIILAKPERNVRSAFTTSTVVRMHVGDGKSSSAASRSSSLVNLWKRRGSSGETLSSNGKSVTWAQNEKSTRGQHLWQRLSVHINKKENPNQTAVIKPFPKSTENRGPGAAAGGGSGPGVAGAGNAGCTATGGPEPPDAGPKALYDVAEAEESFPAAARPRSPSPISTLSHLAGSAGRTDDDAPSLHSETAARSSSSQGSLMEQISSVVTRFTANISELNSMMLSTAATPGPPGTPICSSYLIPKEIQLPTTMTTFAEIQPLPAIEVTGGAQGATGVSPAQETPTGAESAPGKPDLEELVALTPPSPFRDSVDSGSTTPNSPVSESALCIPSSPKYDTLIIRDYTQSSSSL
Format: cell-based
Outline: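 HEK 293 cells stably expressing rat mGluR5, Fluo-4 loaded in HEPES-buffered HBSS pH 7.4 with 0.1% BSA and probenecid. Compound added with EC20 (potentiation) or EC80 (inhibition) glutamate; fluorescence read over 3 min at room temperature. Basal-subtracted maximum fluorescence change fitted to Hill equation.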

Emax, 70 to 99%:
Cc1cc(C(=O)NC23CC4CC(CC(NC(=O)c5ccccn5)(C4)C2)C3)nc(C)n1 [Example 106, 2,6-Dimethyl-pyrimidine-4-carboxylic acid {3-[(pyridine-2-carbonyl)-amino]-adamantan-1-yl}-amide]
COc1cccc(C(=O)NC23CC4CC(C2)CC(NC(=O)c2cncc(C)n2)(C4)C3)c1 [Example 146, 6-Methyl-pyrazine-2-carboxylic acid [3-(3-methoxy-benzoylamino)-adamantan-1-yl]-amide]
CCOc1cccc(C(=O)NC23CC4CC(C2)CC(NC(=O)c2cncc(C)n2)(C4)C3)c1 [Example 147, 6-Methyl-pyrazine-2-carboxylic acid [3-(3-ethoxy-benzoylamino)-adamantan-1-yl]-amide]
Cc1cncc(C(=O)NC23CC4CC(C2)CC(NC(=O)c2csc(C)n2)(C4)C3)n1 [Example 157, 6-Methyl-pyrazine-2-carboxylic acid {3-[(2-methyl-thiazole-4-carbonyl)-amino]-adamantan-1-yl}-amide]
Cc1cccc(C(=O)NC23CC4CC(C2)CC(NC(=O)c2cccc(CO)n2)(C4)C3)n1 [Example 134, 6-Methyl-pyridine-2-carboxylic acid {3-[(6-hydroxymethylpyridine-2-carbonyl)-amino]-adamantan-1-yl}-amide]
Cc1cncc(C(=O)NC23CC4CC(CC(NC(=O)c5ccc(F)c(Cl)c5)(C4)C2)C3)n1 [Example 149, 6-Methyl-pyrazine-2-carboxylic acid [3-(3-chloro-4-fluoro-benzoylamino)-adamantan-1-yl]-amide]
Cc1cccc(C(=O)NC23CC4CC(C2)CC(NC(=O)c2ncccn2)(C4)C3)n1 [Example 121, Pyrimidine-2-carboxylic acid {3-[(6-methyl-pyridine-2-carbonyl)-amino]-adamantan-1-yl}-amide]

Emax, 63 to 99%:
Cn1ccc(C(=O)NC23CC4CC(C2)CC(NC(=O)c2ccn(C)n2)(C4)C3)n1 [Example 17, N,N′-(1,3-Adamantylene)bis(1-methyl-1H-pyrazole-3-carboxamide)]
O=C(NC12CC3CC(C1)CC(NC(=O)c1cccs1)(C3)C2)c1ccccn1 [Example 75, Pyridine-2-carboxylic acid {3-[(thiophene-2-carbonyl)-amino]-adamantan-1-yl}-amide]
CN(C)CCN(C)c1cccc(C(=O)NC23CC4CC(CC(NC(=O)c5cccc(F)c5)(C4)C2)C3)n1 [Example 248, 6-[(2-Dimethylamino-ethyl)-methyl-amino]-pyridine-2-carboxylic acid [3-(3-fluoro-benzoylamino)-adamantan-1-yl]-amide]
O=C(NC12CC3CC(C1)CC(NC(=O)c1cccc(N4CCC[C@@H]4CO)n1)(C3)C2)c1ccccn1 [Example 229, 6-((R)-2-Hydroxymethyl-pyrrolidin-1-yl)-pyridine-2-carboxylic acid {3-[(pyridine-2-carbonyl)-amino]-adamantan-1-yl}-amide]
Cc1cccc(C(=O)NC23CC4CC(C2)CC(NC(=O)c2cccc(CC#N)n2)(C4)C3)n1 [Example 25, 6-Cyanomethyl-pyridine-2-carboxylic acid {3-[(6-methyl-pyridine-2-carbonyl)-amino]-adamantan-1-yl}-amide]
Cc1cccc(C(=O)NC23CC4CC(CC(NC(=O)c5ccc6occc6c5)(C4)C2)C3)n1 [Example 33, 6-Methyl-pyridine-2-carboxylic acid {3-[(benzofuran-5-carbonyl)-amino]-adamantan-1-yl}-amide]
Cc1cnc(C(=O)NC23CC4CC(C2)CC(NC(=O)c2ccn(C)n2)(C4)C3)cn1 [Example 18, 5-Methyl-pyrazine-2-carboxylic acid {3-[(1-methyl-1H-pyrazole-3-carbonyl)-amino]-adamantan-1-yl}-amide]
O=C(NC12CC3CC(C1)CC(NC(=O)c1onc4ccccc14)(C3)C2)c1ccccn1 [Example 62, Benzo[c]isoxazole-3-carboxylic acid {3-[(pyridine-2-carbonyl)-amino]-adamantan-1-yl}-amide]
O=C(NC12CC3CC(C1)CC(NC(=O)c1ccccn1)(C3)C2)c1cccc(F)c1 [Example 59, Pyridine-2-carboxylic acid [3-(3-fluoro-benzoylamino)-adamantan-1-yl]-amide]
COc1ccc(C(=O)NC23CC4CC(C2)CC(NC(=O)c2ccccn2)(C4)C3)cc1 [Example 81, Pyridine-2-carboxylic acid [3-(4-methoxy-benzoylamino)-adamantan-1-yl]-amide]
Cc1cccc(C(=O)NC23CC4CC(C2)CC(NC(=O)c2nccs2)(C4)C3)n1 [Example 40, 6-Methyl-pyridine-2-carboxylic acid {3-[(thiazole-2-carbonyl)-amino]-adamantan-1-yl}-amide]
CN(C)CCCNc1cccc(C(=O)NC23CC4CC(CC(NC(=O)c5cccc(F)c5)(C4)C2)C3)n1 [Example 247, 6-(3-Dimethylamino-propylamino)-pyridine-2-carboxylic acid [3-(3-fluoro-benzoylamino)-adamantan-1-yl]-amide]
CCn1ccc(C(=O)NC23CC4CC(CC(NC(=O)c5cccc(C)n5)(C4)C2)C3)n1 [Example 42, 6-Methyl-pyridine-2-carboxylic acid {3-[(1-ethyl-1H-pyrazole-3-carbonyl)-amino]-adamantan-1-yl}-amide]
O=C(NC12CC3CC(C1)CC(NC(=O)c1cccc(N4CCC[C@H]4CO)n1)(C3)C2)c1ccccn1 [Example 228, 6-((S)-2-Hydroxymethyl-pyrrolidin-1-yl)-pyridine-2-carboxylic acid {3-[(pyridine-2-carbonyl)-amino]-adamantan-1-yl}-amide]
O=C(NC12CC3CC(C1)CC(NC(=O)c1ccno1)(C3)C2)c1ccccn1 [Example 77, Pyridine-2-carboxylic acid {3-[(isoxazole-5-carbonyl)-amino]-adamantan-1-yl}-amide]
Cc1cncc(C(=O)NC23CC4CC(C2)CC(NC(=O)c2ccc5cnccc5n2)(C4)C3)n1 [Example 174, [1,6]Naphthyridine-2-carboxylic acid {3-[(6-methyl-pyrazine-2-carbonyl)-amino]-adamantan-1-yl}-amide]
Cc1cncc(C(=O)NC23CC4CC(CC(NC(=O)c5cc(F)ccn5)(C4)C2)C3)n1 [Example 171, 6-Methyl-pyrazine-2-carboxylic acid {3-[(4-fluoro-pyridine-2-carbonyl)-amino]-adamantan-1-yl}-amide]
CN(C)CCCNc1cccc(C(=O)NC23CC4CC(CC(NC(=O)c5ccccn5)(C4)C2)C3)n1 [Example 226, 6-(3-Dimethylamino-propylamino)-pyridine-2-carboxylic acid {3-[(pyridine-2-carbonyl)-amino]-adamantan-1-yl}-amide]
Cc1ccnc(C(=O)NC23CC4CC(CC(NC(=O)c5cccc(F)c5)(C4)C2)C3)n1 [Example 182, 4-Methyl-pyrimidine-2-carboxylic acid [3-(3-fluoro-benzoylamino)-adamantan-1-yl]-amide]
O=C(NC12CC3CC(C1)CC(NC(=O)c1cn4cc(Cl)ccc4n1)(C3)C2)c1cccc(F)c1 [Example 98, 6-Chloro-imidazo[1,2-a]pyridine-2-carboxylic acid [3-(3-fluoro-benzoylamino)-adamantan-1-yl]-amide]
Cc1cccc(C(=O)NC23CC4CC(C2)CC(NC(=O)c2cccc(NCCN(C)C)n2)(C4)C3)n1 [Example 232, 6-(2-Dimethylamino-ethylamino)-pyridine-2-carboxylic acid {3-[(6-methyl-pyridine-2-carbonyl)-amino]-adamantan-1-yl}-amide]
O=C(NC12CC3CC(C1)CC(NC(=O)c1cnc4ccccc4n1)(C3)C2)c1cnc2ccccc2n1 [Example 13, N,N′-(1,3-adamantylene)bis(quinoxaline-2-carboxamide)]
O=C(NC12CC3CC(C1)CC(NC(=O)c1cccc(-n4ccnc4)n1)(C3)C2)c1ccccn1 [Example 253, 6-Imidazol-1-yl-pyridine-2-carboxylic acid {3-[(pyridine-2-carbonyl)-amino]-adamantan-1-yl}-amide]
Cc1ccnc(C(=O)NC23CC4CC(CC(NC(=O)c5ccncn5)(C4)C2)C3)n1 [Example 194, 4-Methyl-pyrimidine-2-carboxylic acid {3-[(pyrimidine-4-carbonyl)-amino]-adamantan-1-yl}-amide]
Cc1ccn2cc(C(=O)NC34CC5CC(CC(NC(=O)c6ccccn6)(C5)C3)C4)nc2c1 [Example 91, 7-Methyl-imidazo[1,2-a]pyridine-2-carboxylic acid {3-[(pyridine-2-carbonyl)-amino]-adamantan-1-yl}-amide]
Cc1cccc(C(=O)NC23CC4CC(C2)CC(NC(=O)c2nn(C)c5ccccc25)(C4)C3)n1 [Example 37, 1-Methyl-1H-indazole-3-carboxylic acid {3-[(6-methyl-pyridine-2-carbonyl)-amino]-adamantan-1-yl}-amide]
Cc1cccc(C(=O)NC23CC4CC(C2)CC(NC(=O)c2cccc(Cl)n2)(C4)C3)n1 [Example 57, 6-Chloro-pyridine-2-carboxylic acid {3-[(6-methyl-pyridine-2-carbonyl)-amino]-adamantan-1-yl}-amide]
Cc1cncc(C(=O)NC23CC4CC(C2)CC(NC(=O)c2cc(C(F)(F)F)ccc2F)(C4)C3)n1 [Example 169, 6-Methyl-pyrazine-2-carboxylic acid [3-(2-fluoro-5-trifluoromethyl-benzoylamino)-adamantan-1-yl]-amide]
